Test results published in the OPERA property sets (Mansouri et al. 2018).

| logP | Compound |
| --- | --- |
| 2.13 | CCCOC1(c2ccccc2)CN(C)CCO1 (centres undefined) |
| 1.87 | C#CCOC1(c2ccccc2)CN(C)CCO1 (centres undefined) |
| 2.09 | C=CCOC1(c2ccccc2)CN(C)CCO1 (centres undefined) |
| 2.23 | CCCCOC1(c2ccccc2)CN(C)CCO1 (centres undefined) |
| 0.99 | CN1CCOC(O)C1c1ccccc1 (centres undefined) |
| 1.87 | CC1C(c2ccccc2)OC(O)(c2ccccc2)CN1C (centres undefined) |
| 2.23 | CCOC1(c2ccccc2)CN(C)CC(C)O1 (centres undefined) |
| 2.27 | CCOC1(c2ccccc2)OCCN(C)C1C (centres undefined) |
| 2.17 | CC(C)COC1(c2ccccc2)CN(C)CCO1 (centres undefined) |

| Compound | logP |
| --- | --- |
| CN1CCOC(O)(c2ccc(Br)cc2)C1 (centres undefined) | 1.57 |
| CC1CN(C)CC(O)(c2ccccc2)O1 (centres undefined) | 1.79 |
| CN1CCOC(O)(c2cccc(C(F)(F)F)c2)C1 (centres undefined) | 1.39 |
| CC1N(C)CCOC1(O)c1ccccc1 (centres undefined) | 1.92 |
| CN1CCOC(O)(c2ccccc2)C1 (centres undefined) | 1.54 |
